Like-named read-outs stand apart in the source and are kept apart here.
Assays:
[1] = target: anti-ryanodine antibodies; assay: Competitive radioimmunoassay: inhibition of [3H]ryanodine-antibody binding (dextran-coated charcoal assay); design: species or system rabbit; conditions: for binds times less tightly than ryanodine (antibody): relative to ryanodine
Method: Binding was performed in triplicate in 1.5 ml polypropylene tubes. […] Following the addition of serial dilutions of antibody, the tubes were shaken and incubated for 1 h at room temperature. The tubes were placed on ice for 10 min and then 0.2 ml of stirred, ice-cold dextran-coated charcoal (0.0625% Dextran T-70, 0.625% Norit A charcoal in TSG) was added to each tube. The tubes were shaken and incubated for an additional 10 min on ice. […] Controls without antiserum were included to determine the amount of radiolabel that could not be precipitated by the charcoal.
Ryanodine derivatives were prepared by serial dilution in TSG.

[2] = target: T1, skeletal muscle ryanodine receptor (Oryctolagus cuniculus, UniProt P11716); assay: [3H]Ryanodine competition binding to rabbit skeletal muscle triads
T1 construct: Rabbit skeletal muscle triads were prepared as previously described; from tissue; host or cells: rabbit skeletal muscle triads
T1 sequence (P11716 whole entry): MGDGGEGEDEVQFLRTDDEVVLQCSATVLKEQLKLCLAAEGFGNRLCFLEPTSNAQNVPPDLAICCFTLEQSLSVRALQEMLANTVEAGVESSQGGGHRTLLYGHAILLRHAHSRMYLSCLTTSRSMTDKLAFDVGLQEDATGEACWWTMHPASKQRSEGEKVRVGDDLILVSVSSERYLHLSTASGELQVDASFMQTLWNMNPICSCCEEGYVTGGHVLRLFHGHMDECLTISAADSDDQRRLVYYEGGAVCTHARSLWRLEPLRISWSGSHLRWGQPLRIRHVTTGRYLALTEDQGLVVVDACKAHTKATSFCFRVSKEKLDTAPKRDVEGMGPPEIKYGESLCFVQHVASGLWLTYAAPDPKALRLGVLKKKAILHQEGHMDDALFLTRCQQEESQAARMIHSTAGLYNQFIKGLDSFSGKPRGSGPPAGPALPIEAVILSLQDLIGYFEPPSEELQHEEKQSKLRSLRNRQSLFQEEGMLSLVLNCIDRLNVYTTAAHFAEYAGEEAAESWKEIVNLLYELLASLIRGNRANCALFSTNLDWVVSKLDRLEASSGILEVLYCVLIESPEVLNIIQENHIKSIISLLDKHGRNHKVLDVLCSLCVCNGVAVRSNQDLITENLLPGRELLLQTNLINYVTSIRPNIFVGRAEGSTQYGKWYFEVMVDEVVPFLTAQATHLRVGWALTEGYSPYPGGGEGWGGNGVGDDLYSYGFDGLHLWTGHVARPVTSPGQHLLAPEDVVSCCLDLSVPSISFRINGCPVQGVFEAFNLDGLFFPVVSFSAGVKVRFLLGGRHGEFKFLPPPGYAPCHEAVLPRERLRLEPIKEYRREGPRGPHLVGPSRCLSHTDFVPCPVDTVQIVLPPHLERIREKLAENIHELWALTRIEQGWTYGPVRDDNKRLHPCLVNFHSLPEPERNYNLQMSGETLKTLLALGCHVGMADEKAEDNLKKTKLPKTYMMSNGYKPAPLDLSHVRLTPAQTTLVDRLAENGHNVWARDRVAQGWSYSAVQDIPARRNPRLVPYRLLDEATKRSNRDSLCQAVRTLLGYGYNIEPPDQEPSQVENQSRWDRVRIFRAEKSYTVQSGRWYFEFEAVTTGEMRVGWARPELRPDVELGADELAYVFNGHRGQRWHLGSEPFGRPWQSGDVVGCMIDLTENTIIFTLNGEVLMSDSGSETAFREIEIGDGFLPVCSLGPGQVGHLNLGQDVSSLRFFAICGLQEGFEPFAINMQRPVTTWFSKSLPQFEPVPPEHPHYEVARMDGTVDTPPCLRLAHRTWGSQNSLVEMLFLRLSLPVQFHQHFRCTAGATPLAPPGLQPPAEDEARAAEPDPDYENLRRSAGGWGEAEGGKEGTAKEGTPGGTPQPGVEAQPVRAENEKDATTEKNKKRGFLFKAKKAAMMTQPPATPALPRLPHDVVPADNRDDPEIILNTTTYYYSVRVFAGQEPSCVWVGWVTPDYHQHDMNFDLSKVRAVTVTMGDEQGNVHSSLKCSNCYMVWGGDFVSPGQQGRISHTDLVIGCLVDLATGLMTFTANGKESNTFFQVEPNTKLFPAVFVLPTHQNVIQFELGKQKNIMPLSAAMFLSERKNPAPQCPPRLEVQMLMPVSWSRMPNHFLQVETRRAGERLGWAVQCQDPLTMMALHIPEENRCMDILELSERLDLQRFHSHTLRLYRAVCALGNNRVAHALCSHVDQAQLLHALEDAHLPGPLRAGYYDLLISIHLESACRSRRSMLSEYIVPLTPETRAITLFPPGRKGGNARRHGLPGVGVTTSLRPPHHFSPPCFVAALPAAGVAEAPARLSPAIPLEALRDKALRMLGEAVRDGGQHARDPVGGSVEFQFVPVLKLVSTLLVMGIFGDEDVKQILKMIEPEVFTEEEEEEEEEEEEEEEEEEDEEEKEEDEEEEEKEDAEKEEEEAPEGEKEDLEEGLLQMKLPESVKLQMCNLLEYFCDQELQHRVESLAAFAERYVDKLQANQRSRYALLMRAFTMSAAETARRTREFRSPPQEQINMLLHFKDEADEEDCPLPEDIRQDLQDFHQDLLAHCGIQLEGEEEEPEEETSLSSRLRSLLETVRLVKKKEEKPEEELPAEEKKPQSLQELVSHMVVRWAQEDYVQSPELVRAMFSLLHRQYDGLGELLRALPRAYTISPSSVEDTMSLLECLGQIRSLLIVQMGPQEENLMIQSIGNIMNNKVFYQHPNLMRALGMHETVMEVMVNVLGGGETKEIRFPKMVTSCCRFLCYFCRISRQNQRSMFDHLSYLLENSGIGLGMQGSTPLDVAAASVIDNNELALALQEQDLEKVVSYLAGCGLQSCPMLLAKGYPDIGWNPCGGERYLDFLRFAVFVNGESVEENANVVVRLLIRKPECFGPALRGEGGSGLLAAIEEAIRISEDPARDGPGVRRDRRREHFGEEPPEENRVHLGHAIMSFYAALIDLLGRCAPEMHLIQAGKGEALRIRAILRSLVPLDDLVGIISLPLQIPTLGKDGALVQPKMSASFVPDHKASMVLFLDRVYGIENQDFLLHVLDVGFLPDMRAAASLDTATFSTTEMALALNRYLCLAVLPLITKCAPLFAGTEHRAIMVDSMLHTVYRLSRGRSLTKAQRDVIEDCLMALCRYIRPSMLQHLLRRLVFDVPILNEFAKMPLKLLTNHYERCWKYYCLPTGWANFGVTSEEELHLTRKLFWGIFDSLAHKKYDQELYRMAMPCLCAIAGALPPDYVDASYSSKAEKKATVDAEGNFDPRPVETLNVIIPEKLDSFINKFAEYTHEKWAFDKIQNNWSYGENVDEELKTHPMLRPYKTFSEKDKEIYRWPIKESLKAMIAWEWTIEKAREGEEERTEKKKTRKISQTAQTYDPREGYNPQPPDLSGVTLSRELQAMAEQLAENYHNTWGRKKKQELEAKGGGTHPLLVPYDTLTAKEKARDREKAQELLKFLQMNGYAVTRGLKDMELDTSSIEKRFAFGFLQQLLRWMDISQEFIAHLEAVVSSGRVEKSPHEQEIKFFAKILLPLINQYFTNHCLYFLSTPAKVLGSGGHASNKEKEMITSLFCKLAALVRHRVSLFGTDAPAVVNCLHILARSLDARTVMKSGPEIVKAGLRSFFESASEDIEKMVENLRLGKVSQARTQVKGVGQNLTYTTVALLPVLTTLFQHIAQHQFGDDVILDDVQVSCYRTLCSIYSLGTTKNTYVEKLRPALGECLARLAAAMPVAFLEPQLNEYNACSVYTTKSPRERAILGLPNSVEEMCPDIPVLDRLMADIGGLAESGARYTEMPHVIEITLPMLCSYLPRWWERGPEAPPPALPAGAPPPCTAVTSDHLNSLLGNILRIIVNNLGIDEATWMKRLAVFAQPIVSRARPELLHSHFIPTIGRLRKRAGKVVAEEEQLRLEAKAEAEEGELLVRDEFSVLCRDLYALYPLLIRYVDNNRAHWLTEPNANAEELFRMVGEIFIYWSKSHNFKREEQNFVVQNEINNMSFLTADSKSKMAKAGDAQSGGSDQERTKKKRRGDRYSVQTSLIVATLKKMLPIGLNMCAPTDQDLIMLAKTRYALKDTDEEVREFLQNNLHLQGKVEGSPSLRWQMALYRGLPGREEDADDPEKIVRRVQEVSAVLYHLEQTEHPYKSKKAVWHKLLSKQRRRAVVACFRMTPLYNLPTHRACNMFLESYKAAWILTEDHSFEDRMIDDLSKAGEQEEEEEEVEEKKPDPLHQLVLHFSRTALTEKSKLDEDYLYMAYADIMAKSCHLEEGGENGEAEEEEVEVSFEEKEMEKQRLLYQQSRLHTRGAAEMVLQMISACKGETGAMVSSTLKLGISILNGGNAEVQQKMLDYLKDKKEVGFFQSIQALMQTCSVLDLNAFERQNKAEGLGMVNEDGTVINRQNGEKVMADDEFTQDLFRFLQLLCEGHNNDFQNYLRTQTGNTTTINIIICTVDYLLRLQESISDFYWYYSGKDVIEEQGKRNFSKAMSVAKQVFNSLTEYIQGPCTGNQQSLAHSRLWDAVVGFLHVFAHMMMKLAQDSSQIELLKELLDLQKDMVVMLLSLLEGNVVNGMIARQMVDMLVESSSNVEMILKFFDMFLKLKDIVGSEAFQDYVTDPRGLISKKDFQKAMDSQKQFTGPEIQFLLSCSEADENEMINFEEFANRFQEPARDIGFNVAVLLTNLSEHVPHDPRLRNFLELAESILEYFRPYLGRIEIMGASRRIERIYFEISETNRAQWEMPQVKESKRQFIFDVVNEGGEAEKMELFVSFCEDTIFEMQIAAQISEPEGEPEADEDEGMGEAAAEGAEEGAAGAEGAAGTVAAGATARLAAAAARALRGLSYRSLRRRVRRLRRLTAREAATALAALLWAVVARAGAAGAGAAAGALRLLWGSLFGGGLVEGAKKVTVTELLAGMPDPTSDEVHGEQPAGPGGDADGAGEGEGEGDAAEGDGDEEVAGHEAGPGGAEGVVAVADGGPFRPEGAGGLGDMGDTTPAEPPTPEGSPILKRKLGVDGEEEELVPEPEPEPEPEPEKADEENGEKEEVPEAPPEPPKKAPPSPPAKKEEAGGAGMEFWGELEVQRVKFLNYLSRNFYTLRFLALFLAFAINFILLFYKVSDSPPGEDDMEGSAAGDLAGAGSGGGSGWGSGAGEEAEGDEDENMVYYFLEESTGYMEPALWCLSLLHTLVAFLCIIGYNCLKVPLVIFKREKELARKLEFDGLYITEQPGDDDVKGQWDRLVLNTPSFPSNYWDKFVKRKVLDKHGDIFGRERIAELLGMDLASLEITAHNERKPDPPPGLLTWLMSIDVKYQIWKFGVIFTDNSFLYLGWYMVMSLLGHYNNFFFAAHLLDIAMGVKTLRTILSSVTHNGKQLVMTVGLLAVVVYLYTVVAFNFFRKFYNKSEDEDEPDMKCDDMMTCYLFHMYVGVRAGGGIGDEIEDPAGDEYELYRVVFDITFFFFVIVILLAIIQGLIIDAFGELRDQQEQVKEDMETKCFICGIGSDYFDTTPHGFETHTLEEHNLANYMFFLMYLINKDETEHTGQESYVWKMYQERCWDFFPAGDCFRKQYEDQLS
Method: Rabbit skeletal muscle triads were prepared as previously described (Sharp et al., J. Biol. Chem. 262: 12309-12315 (1987)). […]

[3] = target: T2, cardiac ryanodine receptor (cardiac membranes) (Canis lupus familiaris, UniProt A0A8I3MT21); assay: [3H]Ryanodine competition binding to cardiac membranes; design: species or system canine
T2 construct: Canine cardiac junctional SR vesicles were isolated as described previously; from tissue; host or cells: canine cardiac junctional SR vesicles / cardiac microsomes
Excerpt: (§1) Canine cardiac junctional SR vesicles were isolated as described previously (Witcher et al., J. Biol. Chem. 266, 1114-11152 (1991)). Crude rabbit brain membranes were purified as previously described (Witcher et al., J. Biol. Chem. 267, 4963-4967 (1992)).

[4] = target: T3, brain ryanodine receptor (brain membranes) (Oryctolagus cuniculus, UniProt P30957); assay: [3H]Ryanodine competition binding to brain membranes; design: species or system rabbit
T3 construct: Crude rabbit brain membranes were purified as previously described; from tissue; host or cells: crude rabbit brain membranes (microsomes)
Excerpt: as §1

[5] = target: T1, skeletal muscle ryanodine receptor; assay: Photoaffinity labeling of skeletal muscle triads with [3H]ABRy; assay type: binding, rabbit
Method: Since [^3 H]ABRy contains a photoactivatable azido group, this compound was used to covalently label skeletal muscle triads following equilibrium binding. […] The membranes were then pelleted at 400,000×g for 15 min and resuspended in 1 ml of the binding buffer with 5 mM glutathione. The samples were placed in a plastic petri dish at 4° C. and were exposed to UV light (365 nm) at a distance of 1 cm for 45 min. The membranes were then centrifuged in a microfuge at maximum speed for 15 min. at 4° C. The pellets were resuspended in Laemmli sample buffer.
The proteins were then analyzed by SDS-PAGE (3-12% gradient gels) using the buffer system of Laemmli (Nature 227, 680-685 (1970)). Gels were stained with Coomassie blue or transferred to nitrocellulose for immunoblot analysis as previously described (Witcher et al., Science 261, 486-489 (1993)). […] Gels used for fluorography were first stained with Coomassie blue, destained, soaked in Enlightning (DuPont), and dried under vacuum. The dried gels were then exposed to Kodak XAR-5 film at -80° C. The fluorograms were also analyzed densitometrically using a Molecular Dynamics Model 300A scanning densitometer.

[6] = 1 nM [3H]ryanodine, 1:8,000 dilution of anti-ryanodine antibody, read-out: Inhibition of [^3 H] ryanodine-antibody binding, IC50
[7] = from FIG. 5, unit inferred, read-out: IC50 for binding to anti-ryanodine antibodies
[8] = IC50 for binding to the ryanodine receptor, rabbit skeletal membranes, from FIG. 5, unit inferred

Structure (SMILES)	IC50 [1, 6] [nM]	IC50 [1, 7] [nM]	binds times less tightly than ryanodine (antibody) [1]	IC50 [2, 8] [nM]	binding to anti-ryanodine antibodies compared with ryanodine (words) [1]	binding to ryanodine receptor / skeletal membranes compared with ryanodine [2]	binding to anti-ryanodine antibodies compared with ryanodine (words) ([1]; listed as compound 10)	IC50 ([2]; half-maximal inhibition of [3H]ryanodine binding to triads, skeletal muscle triads, 1 nM [3H]ryanodine, 1 hr at 37° C.) [nM]	IC50 [3] [nM]	IC50 [4] [nM]	proteins bound (specificity, words) [5]	binding to anti-ryanodine antibodies compared with ryanodine (words) ([1]; listed as compound 11)	binding to anti-ryanodine antibodies compared with ryanodine (words) ([1]; listed as compound 12)	Kd ([1]; method of Muller, read-out: average antibody apparent dissociation constant (Kd) for the [3H]ryanodine-antibody complex) [nM]
CC(C)C1(O)C(OC(=O)c2ccc[nH]2)C2(O)C3(C)CC4(O)OC5(C(O)C(CSCCCCO)CCC35O)C2(O)C41C (centres unmarked) [Compound 4, 21-(4-Hydroxybutylmercapto)-ryanodine]	25	< 1000	about 10 times	< 1000	–	–	–	–	–	–	–	–	–	–
CC(C)C1(O)C(OC(=O)c2ccc[nH]2)C2(O)C3(C)CC4(O)OC5(C(O)C(CSCCCCOC(=O)c6ccc(N=[N+]=[N-])cc6)CCC35O)C2(O)C41C (centres unmarked) [Compound 6]	198	> 100	~100 times	> 100	lowest affinity	lowest affinity	–	–	–	–	–	–	–	–
CC(C)C1(O)C(OC(=O)c2ccc[nH]2)C2(O)C3(C)CC4(O)OC5(C(O)C(CSCCOC(=O)C(=[N+]=[N-])C(F)(F)F)CCC35O)C2(O)C41C (centres unmarked) [Compound 7, 21-(2-[3,3,3-Trifluoro-2-diazopropionyloxy]-ethylmercapto)-ryanodine]	4	< 1000	–	< 1000	little effect on the IC50	–	–	–	–	–	–	–	–	–
CC1CCC2(O)C3(C)CC4(O)OC2(C1OC(=O)CCNC(=O)c1ccc(N=[N+]=[N-])cc1)C1(O)C3(O)C(OC(=O)c2ccc[nH]2)C(O)(C(C)C)C41C (centres unmarked) [Compound 10, 10-O-(3-[4-Azidobenzamido]-propionyl)-ryanodine]	3.2	< 100	–	< 100	very nearly matched the affinity of native ryanodine	very nearly matched the affinity of native ryanodine	IC50 values similar to ryanodine	~37	89	25	only is capable of binding to the 565 kDa ryanodine receptor/Ca^2+ release channel	–	–	–
CC1CCC2(O)C3(C)CC4(O)OC2(C1OC(=O)CCNC(=O)c1cc(N=[N+]=[N-])ccc1[N+](=O)[O-])C1(O)C3(O)C(OC(=O)c2ccc[nH]2)C(O)(C(C)C)C41C (centres unmarked) [Compound 11, 10-O-(3-[2-Nitro-5-azidobenzamido]-propionyl)-ryanodine]	3.2	< 100	–	< 100	very nearly matched the affinity of native ryanodine	very nearly matched the affinity of native ryanodine	–	–	–	–	–	IC50 values similar to ryanodine	–	–
CC1CCC2(O)C3(C)CC4(O)OC2(C1OC(=O)CCNC(=O)c1ccc(C(=O)c2ccccc2)cc1)C1(O)C3(O)C(OC(=O)c2ccc[nH]2)C(O)(C(C)C)C41C (centres unmarked) [Compound 12, 10-O-(3-[4-benzoylbenzamido]-propionyl)-ryanodine]	6	< 100	–	< 100	very nearly matched the affinity of native ryanodine	very nearly matched the affinity of native ryanodine	–	–	–	–	–	–	IC50 values similar to ryanodine	–
CC1CCC2(O)C3(C)CC4(O)OC2(C1O)C1(O)C3(O)C(OC(=O)c2ccc[nH]2)C(O)(C(C)C)C41C (centres unmarked) [Ryanodine, reference compound]	1.6	< 10	–	–	highest affinity	highest affinity	–	–	–	–	–	–	–	–
CC1CCC2(O)C3(C)CC4(O)OC2(C1O)C1(O)C3(O)C(OC(=O)c2ccc[nH]2)C(O)(C(C)C)C41C (centres unmarked) [[^3 H]ryanodine, reference compound]	–	–	–	–	–	–	–	–	–	–	–	–	–	1

Reference: patent US5492839A (priority 1994, dated 1996)
